Results on 4 compounds are retold here after patent US9643950B2, “Solid forms of {s-3-(4-amino-1-oxo-isoindolin-2-yl)(piperidine-3,4,4,5,5-d5)-2,6-dione}” (Concert Pharmaceuticals, Inc., priority 2012, dated 2017).

Values after ≈ are worked out from the molar mass of the structure shown. “Also recorded” adds a separate entry of the source. Like-named read-outs stand apart in the source and are kept apart here. Where only a bound is given, the exact number is not on record here.

Format in all cases: physicochemical
Data set [1] is described as follows: Relative stability of Forms 1 and 3 in water/organic mixtures (seeded suspensions). The protocol:
A series of experiments were conducted to assess the relative stability of Forms 1 and 3. […] The suspensions were each seeded with a small amount of Form 3 (˜1 mg) and stirred until a complete form conversion occurred.

The nature of data set [2]: Dynamic vapor sorption (DVS) hygroscopicity. The protocol: DVS experiments were conducted on a Surface Measurement Systems DVS-HT at 25° C. The instrument was operated in step mode and the relative humidity was increased in 10% RH increments from 40% RH to 90% RH, then decreased from 90% RH to 0% RH, then increased from 0% RH to 90% RH, then decreased from 90% RH to 0% RH. An extra step at 75% RH was included in each cycle. The mass equilibrium criterion was set at 0.005% change in mass over time (dm/dt) prior to each humidity level. A minimum step time of 10 minutes and a maximum step time of 240 minutes were specified.

Data set [3] can be described thus: Physical (solid form) stability on storage or stirring, by PXRD. The following applies: for Physical stability by PXRD: 40° C./75% RH for 6 days. How it is done:
PXRD diffractograms were acquired using PANalytical X'Pert Pro diffractometer on Si zero-background wafers. All diffractograms were collected using a monochromatic Cu Kα (45 kV/40 mA) radiation and a step size of 0.02° 2θ.
Form 1 is a crystalline powder with a PXRD pattern indicated at FIG. 1. FT-Raman (FIG. 2) and FT-IR Spectra (FIG. 3) were also collected. […] HPLC analysis indicated high purity of the material (>99.9% AUC). […] (FIG. 4). The PXRD diffractogram of the material heated past the exothermic event (heating to 261° C. followed by isothermal hold for 7 min) indicates a racemization of D-(S)-lenalidomide, as confirmed by chiral HPLC analyses of a reference material. […] This conclusion is based on two simultaneously run experiments. In one experiment, […] was exposed to 40° C./75% RH. […] Moreover, even this formation of Form 3 may have been at least in part the result of condensation inside of the RH chamber towards the end of the experiment, as a result of which Form 1 became slightly wet.
PXRD (FIG. 6) and PLM microscopy analyses indicate Form 2 to be partially crystalline and phase-impure with amorphous content. Thermal analyses confirmed that the material loses 4.3% wt. upon heating up to 160° C. (FIG. 8). IR analysis of the volatile component released upon heating confirmed water. The loss of water corresponds to broad endothermic (50-100° C.) and exothermic (120-160° C.) events on the DSC trace (FIG. 8), indicating potential dehydration and crystallization, respectively. An FT-Raman spectrum is provided at FIG. 7.

Data set [4] can be described thus: HPLC analysis of degradation. To be noted: material from rapid evaporation of methanol solution (rotovapped at 65° C.). The protocol: HPLC analyses were conducted with an HP1100 system equipped with a G1131 Quad pump, G1367A autosampler, and G1315B diode array detector. Column: Luna C18(2) (50×2.0 mm, 3 μm). Mobile phase: 100% vol. water (0.05% vol. TFA) to 95% acetonitrile (0.05% vol. TFA) over 8 min and 2 min re-equilibration. Flow rate: 1 mL/min. Detection: 254 nm.

Data set [5] can be described thus: Visually estimated solubility of Form 1 in an array of solvents. The protocol:
Solubility of Form 1 was visually estimated in an array of different solvents. […] Where applicable, the undissolved solids were analyzed by PXRD to verify crystal form. The data are shown in and indicate that the solubility of Form 1 to be relatively low in water and common organic solvents, (<6 mg/mL), very high in dimethylsulfoxide (DMSO; >400 mg/mL), and moderate in water- or DMSO-containing binary solvent systems.
Solubility of Form 1 was visually estimated in an array of diverse solvents. […] Where applicable, the undissolved solids were analyzed by PXRD to verify crystal form. The data are shown in Table 2 and indicate that the solubility of Form 1 is relatively low in water and common organic solvents, (<6 mg/mL), very high in dimethylsulfoxide (DMSO; >400 mg/mL), and moderate in water- or DMSO-containing binary solvent systems.

Turning to `[2H]C1([2H])C(=O)NC(=O)[C@@]([2H])(N2Cc3c(N)cccc3C2=O)C1([2H])[2H]` [Form 3], the “Water activity (αw) at which the form is the more stable” value in data set [1] (20° C.) is > 0.7. Also, the DVS behaviour result in data set [2] (below 20% relative humidity) was “dehydrate and re-hydrate with a relatively small hysteresis”. Also, in data set [2] (between 20-90% relative humidity, room temperature), the DVS weight change result was “no weight change”. Also, the “PXRD of residual solid after DVS” value in data set [2] (equilibrated at 0% RH for four hours) is listed as “no change in solid form”. The “Physical stability by PXRD” value in data set [3] is “about half of the solid converted to Form 1; also recorded: partial conversion to Form 1”. In data set [3] (stored in a closed vial), the Time physically stable is given as “at least 3 weeks”.
In the case of `[2H]C1([2H])C(=O)NC(=O)[C@@]([2H])(N2Cc3c(N)cccc3C2=O)C1([2H])[2H]` [Form 2], in data set [3], the Time physically stable was “at least 24 hrs”. The “Form conversion on storage” value in data set [3] (closed vial at room temperature, within 3 weeks) is “converts to a mixture of Forms 1 and 3; also recorded: converted to Forms 1 and 3”. Also, in data set [3] (water, 12 hr at 5° C.), the “Form obtained upon stirring in water” value is “Form 3 formed”.
Turning to `[2H]C1([2H])C(=O)NC(=O)[C@@]([2H])(N2Cc3c(N)cccc3C2=O)C1([2H])[2H]` [Amorphous D-(S)-lenalidomide], the “Degradation by HPLC” value in data set [4] came out at 2.5 % AUC.
As a reminder, the solubility is the dissolved amount per volume that the medium holds. For orientation: Solubility means how much of the substance goes into solution per volume. Turning to `[2H]C1([2H])C(=O)NC(=O)[C@@]([2H])(N2Cc3c(N)cccc3C2=O)C1([2H])[2H]` (single isomer, unassigned) [Form 1, 3-(4-amino-1-oxoisoindolin-2-yl)(piperidine-3,4,4,5,5-d5)-2,6-dione], the “Produced Crystal Form” value is “Form 3” in data set [1] (1,4-Dioxane:Water 90:10% vol., water activity 0.7, 5 °C, seeded with Form 3); “Form 1” in data set [1] (1,4-Dioxane:Water 90:10% vol., water activity 0.7, 20 °C, seeded with Form 3); “Form 1” in data set [1] (1,4-Dioxane:Water 96.5:3.5% vol., water activity 0.5, 7 °C, seeded with Form 3); “Form 1” in data set [1] (1,4-Dioxane:Water 96.5:3.5% vol., water activity 0.5, 20 °C, seeded with Form 3); “Form 1” in data set [1] (1,4-Dioxane:Water 99:1% vol., water activity 0.2, 20 °C, seeded with Form 3); “Form 3” in data set [1] (Water, water activity 1.0, 5 °C, Form 1 suspension seeded with Form 3). For the same compound, the “Produced Crystal Form” value in data set [1] (Water, water activity 1.0, 20 °C, Form 1 suspension seeded with Form 3) is listed as “Form 3”. For the same compound, the “Water activity (αw) at which the form is the more stable” value in data set [1] (20° C.) is listed as < 0.7; in data set [1] (lower temperatures (5, and 7° C.)), < 0.5. For the same compound, the DVS weight gain in data set [2] (between 0-90% RH, 25° C.) is listed as < 0.65 wt. %. In data set [3], the “Physical stability by PXRD” value is reported as “physically stable; also recorded: Form 1 as the major component, with only a trace of Form 3 being formed”. The “Residual Solid (crystal form of undissolved solids by PXRD)” value in data set [5] (1,4-Dioxane), in data set [5] (2-Propanol), in data set [5] (Dichloromethane), in data set [5] (Ethyl Acetate), in data set [5] (Heptane) and in data set [5] (Toluene) was “Form 1” in each case. The solubility in data set [5] (1,4-dioxane, 40 °C, organic solvent or mixture, thermodynamic from solid, read-out: Solubility at 40° C.) was > 6000 µg/mL; in data set [5] (2-propanol, 40 °C, organic solvent or mixture, thermodynamic from solid, read-out: Solubility at 40° C.), < 1000 µg/mL; in data set [5] (dichloromethane, 40 °C, organic solvent or mixture, thermodynamic from solid, read-out: Solubility at 40° C.), < 1000 µg/mL; in data set [5] (ethyl acetate, 40 °C, organic solvent or mixture, thermodynamic from solid, read-out: Solubility at 40° C.), < 1000 µg/mL; in data set [5] (heptane, 40 °C, organic solvent or mixture, thermodynamic from solid, read-out: Solubility at 40° C.) it was < 1000 µg/mL; in data set [5] (organic solvent or mixture, thermodynamic from solid, 1,4-Dioxane, 20° C., read-out: Solubility at RT), < 1000 µg/mL. For the same compound, the solubility is 1000 to 10000 µg/mL (≈ 3.78 to 37.8 mM) in data set [5] (organic solvent or mixture, thermodynamic from solid, 2-Propanol: 10% vol. DMSO, 20° C., read-out: Solubility at RT); < 1000 µg/mL in data set [5] (organic solvent or mixture, thermodynamic from solid, 2-Propanol, 20° C., read-out: Solubility at RT); 1000 to 6000 µg/mL (≈ 3.78 to 22.7 mM) in data set [5] (organic solvent or mixture, thermodynamic from solid, Acetone, 20° C., read-out: Solubility at RT); 10000 to 30000 µg/mL (≈ 37.8 to 114 mM) in data set [5] (organic solvent or mixture, thermodynamic from solid, Acetonitrile: 10% vol. DMSO, 20° C., read-out: Solubility at RT); 14000 to 17000 µg/mL (≈ 53 to 64.3 mM) in data set [5] (organic solvent or mixture, thermodynamic from solid, Acetonitrile: 10% vol. Water, 20° C., read-out: Solubility at RT); 1000 to 6000 µg/mL (≈ 3.78 to 22.7 mM) in data set [5] (organic solvent or mixture, thermodynamic from solid, Acetonitrile, 20° C., read-out: Solubility at RT). In addition, the solubility was > 400000 µg/mL in data set [5] (organic solvent or mixture, thermodynamic from solid, DMSO, 20° C., read-out: Solubility at RT); < 1000 µg/mL in data set [5] (organic solvent or mixture, thermodynamic from solid, Dichloromethane, 20° C., read-out: Solubility at RT); < 1000 µg/mL in data set [5] (organic solvent or mixture, thermodynamic from solid, Ethyl Acetate, 20° C., read-out: Solubility at RT); < 1000 µg/mL in data set [5] (organic solvent or mixture, thermodynamic from solid, Heptane, 20° C., read-out: Solubility at RT); 1000 to 10000 µg/mL (≈ 3.78 to 37.8 mM) in data set [5] (organic solvent or mixture, thermodynamic from solid, Methanol: 5% vol. Water, 20° C., read-out: Solubility at RT); 1000 to 10000 µg/mL (≈ 3.78 to 37.8 mM) in data set [5] (organic solvent or mixture, thermodynamic from solid, Methanol: 10% vol. Water, 20° C., read-out: Solubility at RT). The solubility in data set [5] (organic solvent or mixture, thermodynamic from solid, Methanol, 20° C., read-out: Solubility at RT) is 1000 to 6000 µg/mL (≈ 3.78 to 22.7 mM); in data set [5] (organic solvent or mixture, thermodynamic from solid, Tetrahydrofuran, 20° C., read-out: Solubility at RT), 1000 to 6000 µg/mL (≈ 3.78 to 22.7 mM); in data set [5] (organic solvent or mixture, thermodynamic from solid, Toluene, 20° C., read-out: Solubility at RT) it was < 1000 µg/mL; in data set [5] (thermodynamic from solid, Water, 20° C., read-out: Solubility at RT), 1000 to 6000 µg/mL (≈ 3.78 to 22.7 mM); in data set [5] (thermodynamic from solid, water and common organic solvents, 20° C., read-out: Solubility) it was < 6000 µg/mL; in data set [5] (toluene, 40 °C, organic solvent or mixture, thermodynamic from solid, read-out: Solubility at 40° C.) it was < 1000 µg/mL. In data set [5] (water- or DMSO-containing binary solvent systems, 20° C.), the solubility entry is on record as “moderate”. Besides, the “Solubility at RT” value in data set [5] (DMSO, 20° C.) was >400000 µg/mL.
